{"source": "patent US20120040956A1", "about": "“INHIBITORS OF HIF-1 PROTEIN ACCUMULATION” (INTERMED DISCOVERY GMBH, priority 2008, published 2012)", "test_system": "NHDF (fibroblast)", "test": "NHDF (fibroblast) spheroid sprouting/scattering in 3D collagen gel", "assay_type": "cell-based", "conditions": "Homo sapiens, 24 h, 3D collagen gel, read-out: IC50, NHDF fibroblast spheroid sprouting/scattering", "method": "Prior application the stock solution [100 mM] of IMD-019064 was diluted 1:10 in DMSO and serially diluted in half logarithmic steps covering the concentration range from 10 mM to 1 μM using 100% DMSO. The final assay concentration ranged from 100 μM to 10 nM with a final DMSO concentration in the assay of 1%. The experiments were pursued in modification of the originally published protocol (Korff and Augustin: J Cell Sci 112: 3249-58, 1999). In brief, spheroids were prepared as described by Korff and Augustin: J Cell Biol 143: 1341-52, 1998) by pipetting 500 endothelial cells (EC) in a hanging drop on plastic dishes to allow overnight spheroid aggregation. […]\nPlates were incubated at 37° C. for 24 hours and fixed by adding 4% paraformaldehyde. The cumulative sprout length of 10 randomly selected spheroids per data point was analyzed and the relative inhibition by the test compound determined. […] Sprouting intensity of EC and fibroblast spheroids was quantitated by an image analysis system using an inverted microscope and the digital imaging software Analysis 3.2 (Soft imaging system, Munster, Germany). […] The cumulative sprout length of 10 randomly selected spheroids per data point was analyzed according to the procedure used for the HUVEC experiment. […]", "data": [{"smiles": "CNCCOc1ccc2c(c1)OC1(c3ccc(Cl)cc3)C(c3ccccc3)CC(O)C21O", "note": "(stereo not shown) [IMD-026260, (1,3a,8b)-3a-(4-chlorophenyl)-6-(2-(methylamino)ethoxy)-3-phenyl-2,3,3a,8b-tetrahydro-1H-benzo[d]cyclopenta[b]furan-1,8b-diol]", "values": [{"measurement": "IC50", "result": 180, "unit": "nM"}]}]}
